# Assays:
# Assay in all cases: Bliss interaction score (quartile over a dose matrix) (fitness difference); higher = more antagonism (negative = synergy)
# B. subtilis 168 = system: B. subtilis 168
# How it was run: (§1)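 OD595 was read at entry into stationary phase and expressed relative to the robust mean of the no-drug wells on the same plate, capped at 1. The resulting ratio is the fitness value. The Bliss score, observed fitness minus product-based expected fitness with single-drug fitness inferred from combinations, is summarised by quartiles over technical, biological and donor/recipient replicates.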
# S. aureus Newman = system: S. aureus Newman
# How it was run: as §1
# S. aureus DSM 20231 = system: S. aureus DSM 20231
# How it was run: as §1
# S. pneumoniae D39V = system: S. pneumoniae D39V
# How it was run: as §1
# 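Also: first quartile when negative (synergy) and third quartile when positive (antagonism).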
SMILES,Bliss interaction score (B. subtilis 168),Bliss interaction score (S. aureus Newman),Bliss interaction score (S. aureus DSM 20231),Bliss interaction score (S. pneumoniae D39V),Bliss interaction score (B. subtilis 168; main component drawn),Bliss interaction score (S. aureus Newman; main component drawn),Bliss interaction score (S. aureus DSM 20231; main component drawn),Bliss interaction score (S. pneumoniae D39V; main component drawn)
C[C@@H](O)[C@H]1C(=O)N2C(C(=O)O)=C(SCCNC=N)C[C@H]12 [Imipenem] + CO[C@@]12[C@H](COC(N)=O)C3=C(C(=O)C(C)=C(N)C3=O)N1C[C@@H]1N[C@@H]12 [MitomycinC],-0.0977,0.0577,-0.03,-0.0563,–,–,–,–
C[C@@H](O)[C@H]1C(=O)N2C(C(=O)O)=C(SCCNC=N)C[C@H]12 [Imipenem] + COc1cc(Cc2cnc(N)nc2N)cc(OC)c1OC [Trimethoprim],-0.127,-0.0308,-0.0457,0.153,–,–,–,–
C[C@@H](O)[C@H]1C(=O)N2C(C(=O)O)=C(SCCNC=N)C[C@H]12 [Imipenem] + Oc1cc(Cl)ccc1Oc1ccc(Cl)cc1Cl [Triclosan],-0.0589,0.0211,0.0376,0.0753,–,–,–,–
CCC[C@@H]1C[C@@H](C(=O)N[C@@H]([C@H]2O[C@H](SC)[C@H](O)[C@@H](O)[C@H]2O)[C@@H](C)O)N(C)C1 [Lincomycin] + CC1(C)S[C@@H]2[C@H](NC(=O)Cc3ccccc3)C(=O)N2[C@H]1C(=O)O [PenicillinG],0.0736,0.0805,0.0494,0.0998,–,–,–,–
CCC[C@@H]1C[C@@H](C(=O)N[C@@H]([C@H]2O[C@H](SC)[C@H](O)[C@@H](O)[C@H]2O)[C@@H](C)O)N(C)C1 [Lincomycin] + CC[C@H]1OC(=O)[C@H](C)C(=O)[C@H](C)[C@@H](O[C@@H]2O[C@H](C)C[C@H](N(C)C)[C@H]2O)[C@](C)(OC)C[C@@H](C)C(=O)[C@H](C)[C@H]2N(CCCCn3cnc(-c4cccnc4)c3)C(=O)O[C@]12C [Telithromycin],0.091,-0.0488,-0.053,-0.171,–,–,–,–
CCC[C@@H]1C[C@@H](C(=O)N[C@@H]([C@H]2O[C@H](SC)[C@H](O)[C@@H](O)[C@H]2O)[C@@H](C)O)N(C)C1 [Lincomycin] + CN[C@H](CC(C)C)C(=O)N[C@H]1C(=O)N[C@@H](CC(N)=O)C(=O)N[C@H]2C(=O)N[C@H]3C(=O)N[C@H](C(=O)N[C@H](C(=O)O)c4cc(O)cc(O)c4-c4cc3ccc4O)[C@H](O[C@H]3C[C@](C)(N)[C@@H](O)[C@H](C)O3)c3ccc(c(Cl)c3)Oc3cc2cc(c3O[C@@H]2O[C@H](CO)[C@@H](O)[C@H](O)[C@H]2O[C@H]2C[C@](C)(NCc3ccc(-c4ccc(Cl)cc4)cc3)[C@@H](O)[C@H](C)O2)Oc2ccc(cc2Cl)[C@H]1O [Oritavancin],0.0264,-0.0583,-0.0375,0.0612,–,–,–,–
CCC[C@@H]1C[C@@H](C(=O)N[C@@H]([C@H]2O[C@H](SC)[C@H](O)[C@@H](O)[C@H]2O)[C@@H](C)O)N(C)C1 [Lincomycin] + CO[C@@]12[C@H](COC(N)=O)C3=C(C(=O)C(C)=C(N)C3=O)N1C[C@@H]1N[C@@H]12 [MitomycinC],0.0735,-0.0572,-0.0874,-0.0879,–,–,–,–
CCC[C@@H]1C[C@@H](C(=O)N[C@@H]([C@H]2O[C@H](SC)[C@H](O)[C@@H](O)[C@H]2O)[C@@H](C)O)N(C)C1 [Lincomycin] + Oc1cc(Cl)ccc1Oc1ccc(Cl)cc1Cl [Triclosan],-0.0218,0.0423,-0.224,-0.119,–,–,–,–
COc1c(N2C[C@@H]3CCCN[C@@H]3C2)c(F)cc2c(=O)c(C(=O)O)cn(C3CC3)c12 [Moxifloxacin] + C/C(=C\C(=O)OCCCCCCCCC(=O)O)C[C@@H]1OC[C@H](C[C@@H]2O[C@H]2[C@@H](C)[C@H](C)O)[C@@H](O)[C@H]1O [Pseudomonic acid],0.0399,0.0227,-0.019,0.072,–,–,–,–
COc1c(N2C[C@@H]3CCCN[C@@H]3C2)c(F)cc2c(=O)c(C(=O)O)cn(C3CC3)c12 [Moxifloxacin] + CC1(C)S[C@@H]2[C@H](NC(=O)Cc3ccccc3)C(=O)N2[C@H]1C(=O)O [PenicillinG],0.0377,-0.0783,0.0629,0.0895,–,–,–,–
COc1c(N2C[C@@H]3CCCN[C@@H]3C2)c(F)cc2c(=O)c(C(=O)O)cn(C3CC3)c12 [Moxifloxacin] + CC[C@H]1OC(=O)[C@H](C)C(=O)[C@H](C)[C@@H](O[C@@H]2O[C@H](C)C[C@H](N(C)C)[C@H]2O)[C@](C)(OC)C[C@@H](C)C(=O)[C@H](C)[C@H]2N(CCCCn3cnc(-c4cccnc4)c3)C(=O)O[C@]12C [Telithromycin],0.0281,0.0472,0.0615,0.0543,–,–,–,–
COc1c(N2C[C@@H]3CCCN[C@@H]3C2)c(F)cc2c(=O)c(C(=O)O)cn(C3CC3)c12 [Moxifloxacin] + CN[C@H](CC(C)C)C(=O)N[C@H]1C(=O)N[C@@H](CC(N)=O)C(=O)N[C@H]2C(=O)N[C@H]3C(=O)N[C@H](C(=O)N[C@H](C(=O)O)c4cc(O)cc(O)c4-c4cc3ccc4O)[C@H](O[C@H]3C[C@](C)(N)[C@@H](O)[C@H](C)O3)c3ccc(c(Cl)c3)Oc3cc2cc(c3O[C@@H]2O[C@H](CO)[C@@H](O)[C@H](O)[C@H]2O[C@H]2C[C@](C)(NCc3ccc(-c4ccc(Cl)cc4)cc3)[C@@H](O)[C@H](C)O2)Oc2ccc(cc2Cl)[C@H]1O [Oritavancin],0.024,0.0436,-0.0425,-0.052,–,–,–,–
COc1c(N2C[C@@H]3CCCN[C@@H]3C2)c(F)cc2c(=O)c(C(=O)O)cn(C3CC3)c12 [Moxifloxacin] + Oc1cc(Cl)ccc1Oc1ccc(Cl)cc1Cl [Triclosan],0.0151,-0.038,-0.0397,0.0747,–,–,–,–
O=C1CN(/N=C/c2ccc([N+](=O)[O-])o2)C(=O)N1 [Nitrofurantoin] + C/C(=C\C(=O)OCCCCCCCCC(=O)O)C[C@@H]1OC[C@H](C[C@@H]2O[C@H]2[C@@H](C)[C@H](C)O)[C@@H](O)[C@H]1O [Pseudomonic acid],0.127,-0.0266,-0.0197,0.0739,–,–,–,–
O=C1CN(/N=C/c2ccc([N+](=O)[O-])o2)C(=O)N1 [Nitrofurantoin] + CC1(C)S[C@@H]2[C@H](NC(=O)Cc3ccccc3)C(=O)N2[C@H]1C(=O)O [PenicillinG],-0.0696,0.0397,-0.0568,0.13,–,–,–,–
O=C1CN(/N=C/c2ccc([N+](=O)[O-])o2)C(=O)N1 [Nitrofurantoin] + CCCCCCCCCC(=O)N[C@@H]1[C@H]([C@@H]([C@H](O[C@H]1OC2=C3C=C4C=C2OC5=C(C=C(C=C5)[C@H]([C@H]6C(=O)N[C@@H](C7=C(C(=CC(=C7)O)OC8[C@H]([C@H]([C@@H]([C@H](O8)CO)O)O)O)C9=C(C=CC(=C9)[C@H](C(=O)N6)NC(=O)[C@@H]4NC(=O)[C@@H]1C2=CC(=CC(=C2)OC2=C(C=CC(=C2)[C@H](C(=O)N[C@H](CC2=CC(=C(O3)C=C2)Cl)C(=O)N1)N)O)O)O)C(=O)O)O[C@H]1[C@@H]([C@H]([C@@H]([C@H](O1)CO)O)O)NC(=O)C)Cl)CO)O)O [Teicoplanin],–,–,–,–,-0.157,-0.0914,0.0402,-0.06
O=C1CN(/N=C/c2ccc([N+](=O)[O-])o2)C(=O)N1 [Nitrofurantoin] + CC[C@H]1OC(=O)[C@H](C)C(=O)[C@H](C)[C@@H](O[C@@H]2O[C@H](C)C[C@H](N(C)C)[C@H]2O)[C@](C)(OC)C[C@@H](C)C(=O)[C@H](C)[C@H]2N(CCCCn3cnc(-c4cccnc4)c3)C(=O)O[C@]12C [Telithromycin],-0.128,-0.0641,-0.0398,-0.293,–,–,–,–
O=C1CN(/N=C/c2ccc([N+](=O)[O-])o2)C(=O)N1 [Nitrofurantoin] + CN[C@H](CC(C)C)C(=O)N[C@H]1C(=O)N[C@@H](CC(N)=O)C(=O)N[C@H]2C(=O)N[C@H]3C(=O)N[C@H](C(=O)N[C@H](C(=O)O)c4cc(O)cc(O)c4-c4cc3ccc4O)[C@H](O[C@H]3C[C@](C)(N)[C@@H](O)[C@H](C)O3)c3ccc(c(Cl)c3)Oc3cc2cc(c3O[C@@H]2O[C@H](CO)[C@@H](O)[C@H](O)[C@H]2O[C@H]2C[C@](C)(NCc3ccc(-c4ccc(Cl)cc4)cc3)[C@@H](O)[C@H](C)O2)Oc2ccc(cc2Cl)[C@H]1O [Oritavancin],0.0189,-0.118,-0.0379,-0.0352,–,–,–,–
O=C1CN(/N=C/c2ccc([N+](=O)[O-])o2)C(=O)N1 [Nitrofurantoin] + CO[C@@H]1[C@@H](OC(N)=O)[C@@H](O)[C@H](Oc2ccc3c(O)c(NC(=O)c4ccc(O)c(CC=C(C)C)c4)c(=O)oc3c2C)OC1(C)C [Novobiocin],0.0731,0.0827,0.0482,0.0513,–,–,–,–
O=C1CN(/N=C/c2ccc([N+](=O)[O-])o2)C(=O)N1 [Nitrofurantoin] + COc1cc(Cc2cnc(N)nc2N)cc(OC)c1OC [Trimethoprim],-0.181,0.0663,-0.0418,-0.553,–,–,–,–
O=C1CN(/N=C/c2ccc([N+](=O)[O-])o2)C(=O)N1 [Nitrofurantoin] + Oc1cc(Cl)ccc1Oc1ccc(Cl)cc1Cl [Triclosan],-0.039,0.0328,-0.014,0.0809,–,–,–,–

# — the supplement of paper PMC10627819
